US20110288154A1, “RNA Interference Mediated Inhibition of Epithelial Sodium Channel (ENaC) Gene Expression Using Short Interfering Nucleic Acid (siNA)” (MERCK & CO., INC., priority 2008, published 2011)

Columns and labels:
[1] = test system: ENaC-alpha mRNA; assay: ENaC-alpha mRNA knockdown in recombinant HEK cells of the FLIPR assay; assay type: cell-based, human; details: n = 6, mean of 3 independent experiments
Experimental: (§1) Recombinant HEK293 cell line (expressing ENaC beta & gamma) SCNN1B (P618AY620L)+SCNN1G (P624stop) #24. were grown at 37 deg in the presence of CO2 and were cultured in M1 medium M1+0.5 mg/ml geneticin and 0.2 mg/ml hygromycin.
(§2) Functional Effects on ENaC via FLIPR in Cells Over Expressing ENaCa: A reverse transfection methodology was used to transfect the HEK recombinant cell line. 5 ul of siRNA (diluted in Optimem to the appropriate concentration) was mixed with 5 ul of the Gemini lipid transfection reagent diluted in Optimem in 384 well non-coated FLIPR plate. Plates were incubated at room temperature for 20 minutes to allow complex formation. Cells were harvested, spun down, diluted to 3×10^5/ml and plated out at 40 ul/well (12K/well) in 384 well plate format containing the transfection complex. The plates were incubated overnight for 20 hours. The cells were then transduced with BacMam virus expressing ENaC alpha (BacMam viruses expressing SCNN1A, GRITS 29703, titre 0.356×10^8/ml). 30 ul of virus was added (1.7%) 20K/well, MOI was approximately 1. Cells were incubated for 24 hours. On day of the FLIPR assay, media was aspirated, leaving 10 ul volume. 20 ul of dye per well was loaded (FMP2 Blue dye, R8181, MDS. For each pot, 133 ml Tyrodes buffer was diluted to make 1× stock prior to assay). The plate was incubated for 0.5 hours at room temperature and 10 ul of the compound added on-line prior to FLIPR read (FLIPR settings: protocol Na MP.fcf, with Exposure length 0.4 sec and Filter #2). Compound plate: 1 ul volume, column 1, 2 and 3 are 16, 4 and 0 uM amiloride final (1/200 dilution) (IC80, IC50 and ctrl).
RNA isolation 384 well Plate: Extract mRNA using Qiagen Turbo Capture RNA preparation kit, following manufacturer's instructions.
(§3) Quantitative RT-PCR (TaqMan): A series of probes and primers were used for the detection of mRNA transcripts of ENaCα, OAS1, IL8 and GAPDH (as control/normalisation) in the human cell lines. The assays were performed on an ABI 7900HT instrument according to the manufacturer's instructions. Primer Probe sets used GAPDH Forward 5′-[…]-3 (SEQ ID NO: 128), ‘Reverse 5’-GGGCCATCCACAGTCTTCT-3′ (SEQ ID NO: 129), Probe 5′ d FAM-[…]-TAMRA 3′ (SEQ ID NO: 130), ENaCa Forward 5′-[…]-3′ (SEQ ID NO: 131), Reverse 5′-[…]-3′ (SEQ ID NO: 132), Probe 5′ d FAM-[…]-TAMRA 3′ (SEQ ID NO: 133), OAS1 Forward 5′-[…]-3′ (SEQ ID NO: 134), Reverse 5′-[…]-3′ (SEQ ID NO: 135), Probe 5′ d FAM-[…]-TAMRA 3′ (SEQ ID NO: 136), IL8 Forward 5′-CTGGCCGTGGCTCTCTTG-3′ (SEQ ID NO: 137), Reverse 5′-[…]-3′ (SEQ ID NO: 138), Probe 5′ d FAM-[…]-TAMRA 3′ (SEQ ID NO: 139).

[2] = test system: ENaC; assay: FLIPR assay of sodium transport in recombinant HEK cells over expressing ENaC; assay type: cell-based, human; details: FLIPR, n = 6, mean of 3 independent experiments
Experimental: as §1, §2

[3] = test system: human ENaCα mRNA; assay: ENaCα mRNA knockdown and EC50 in human normal bronchial epithelial cells (NHBEs); assay type: cell-based; details: 48 hrs post transfection, n = 3 donors; for EC50: nine point dose range 0.01-100 nM
Experimental: Human Bronchial Epithelial cells (NHBE cells) obtained from Lonza (Cat. No. CC-2540) were grown at 37 deg in the presence of 5% CO2 and cultured in BEBM basal medium (Lonza, Cat. No. CC-3171) on Biocoat Collagenl coated flasks (Becton Dickinson).
mRNA Knockdown and EC50 in NHBEs: Cells were plated in collagen 1 coated plates and cultured in appropriate culture media. The cells were cultured for 24 hours after plating at 37 deg in the presence of 5% CO2. siNAs were diluted in OptiMEM 1 to 1 uM and the delivery lipid GSK212357A to 25 ug/ml. For formulation of the siNAs equal volumes of the diluted siNA and delivery lipid were combined and incubated for 20 minutes at room temperature. Cells were meanwhile trypsinised and resuspended in antibiotic free BEBM media at 150,000 cells/ml. 20 ul of the formulated siNA and 80 ul of BEBM media was added per well of a 96 well plate (6 replicates/data point/siRNA concentration) so as to give a nine point dose range of the siRNAs (100 nM, 30 nM, 10 nM, 3 nM, 1 nM, 0.3 nM, 0.1 nM, 0.03 nM, 0.01 nM). The time of incubation with the GSK212357A-siNA complexes were 48 hours with one change of media at 24 hours.
RNA Isolation 96 well Plate: Total RNA was isolated from the cells in the 96-well plate format using the Automated SV96 Total RNA Isolation System (Promega) according to the manufacturer's instructions. The Biomek 2000 Laboratory Automation Workstation (Beckman Coulter) was used to apply the transfected cell lysates to a silica membrane. RNase-Free DNase I was then applied directly to the silica membrane to digest contaminating genomic DNA. The bound total RNA was further purified from contaminating salts, proteins and cellular impurities by simple washing steps. Finally, total RNA was eluted from the membrane by the addition of Nuclease-Free Water.
as §3
TaqMan: Critical threshold values (Ct) were converted to copy numbers corresponding to the particular gene analysed in each well of the 384 well plate. Six identical wells were prepared in each plate for a given treatment. […] Determination of the percentage coefficient of variation (CV) (% C.V.=[standard deviation/average]*100) allowed the omitting of wells whose value was an outlier (so that % C.V.<25). Relative abundance (aka relative expression) of a gene was determined by dividing the mean copy number of that gene with its GAPDH counterpart in that particular sample.
EC50 values were calculated from the data using sigma plot. All calculations of the efficacy and potency of the siNAs were done relative to the non-targeting control siNA.

[4] = final siNA concentration 100 nM

| Substance | % ENaC-alpha mRNA knockdown ([1]; final siNA concentration 10 nM) [%] | % ENaC-alpha mRNA knockdown ([1]; final siNA concentration 20 nM) [%] | % ENaC-alpha mRNA knockdown ([1]; final siNA concentration 50 nM) [%] | % ENaC-alpha mRNA knockdown [1, 4] [%] | % Inhibition of Maximal Response (4 uM amiloride) ([2]; final siNA concentration 10 nM) [%] | % Inhibition of Maximal Response (16 uM amiloride) ([2]; final siNA concentration 10 nM) [%] | % Inhibition of Maximal Response (4 uM amiloride) ([2]; final siNA concentration 20 nM) [%] | % Inhibition of Maximal Response (16 uM amiloride) ([2]; final siNA concentration 20 nM) [%] | % Inhibition of Maximal Response (4 uM amiloride) ([2]; final siNA concentration 50 nM) [%] | % Inhibition of Maximal Response (16 uM amiloride) ([2]; final siNA concentration 50 nM) [%] | % Inhibition of Maximal Response (4 uM amiloride) [2, 4] [%] | % Inhibition of Maximal Response (16 uM amiloride) [2, 4] [%] | Maximum mRNA knockdown NHBEs [3] [%] | EC50 [3] [nM] |
| --- | --- | --- | --- | --- | --- | --- | --- | --- | --- | --- | --- | --- | --- | --- |
| B uGuGcAAccAGAAcAAAuc TTB / GAUuuGuucuGGuuGcAcAUU (chain 1 UGUGCAACCAGAACAAAUCTT; chain 2 GAUUUGUUCUGGUUGCACAUU; siRNA; B caps on sense ends, letter-case modifications not given here, further chemistry not given here) [Site 782] | 61.7 | 67.7 | 75.1 | 73.1 | 37.1 | 40.8 | 41.4 | 47.9 | 52.5 | 59.7 | 81.5 | 85.2 | 79 | 0.47 |
| B GcuGuGccuAcAucuucuA TTB / UAGAAGAuGuAGGcAcAGcUU (sense GCUGUGCCUACAUCUUCUATT; antisense UAGAAGAUGUAGGCACAGCUU; siRNA; B caps on sense ends, letter-case modifications not given here, further chemistry not given here) [Site 1388] | – | – | – | – | – | – | – | – | – | – | – | – | 79 | 4.2 |
| B GuGuGGcuGuGccuAcAuc TTB / GAUGuAGGcAcAGccAcAcUU (sense GUGUGGCUGUGCCUACAUCTT; antisense GAUGUAGGCACAGCCACACUU; siRNA; B caps on sense ends, letter-case modifications not given here, further chemistry not given here) [Site 1383] | – | – | – | – | – | – | – | – | – | – | – | – | 64 | 4.9 |
| B uuAuGGAuGAuGGuGGcuu TTB / AAGccAccAucAuccAuAAUU (sense UUAUGGAUGAUGGUGGCUUTT; antisense AAGCCACCAUCAUCCAUAAUU; siRNA; B caps on sense ends, letter-case modifications not given here, further chemistry not given here) [Site 1181] | 52.6 | 65.6 | 76.1 | 76.9 | 43.8 | 45.8 | 48.9 | 51.4 | 62.2 | 65.5 | 77.5 | 77.5 | 78 | 1.59 |
